In patent US7335632B2, “Beta-secretase inhibitors and methods of use thereof” (CoMentis, Inc., priority 2001, dated 2008):

What was measured:
Aβ production = assay: Cellular Aβ IC50 determination (Aβ40 sandwich ELISA); assay type: cell-based; details: Cricetulus griseus, Chinese hamster ovary cells over-expressing human APP695 with London and Swedish mutations, 24 h
Method: The potency of compounds against memapsin 2 activity was determined in a cellular assay of Aβ production. […] Chinese hamster ovary cells that over-express human APP695 with the London and Swedish mutations were seeded in multi-well plates at 10% confluency. Compounds were dissolved in DMSO to concentrations near 1 mM, and diluted into culture media to a final concentration near 4 μM (final 0.4% DMSO). Compounds were diluted serially and applied to cells in multi-well plates 48 h after seeding. Incubation was continued in 5% CO2 at 37 degrees C. for 24 h. Aliquots were removed and assayed for Aβ40 content using a sandwich ELISA (BioSource International). Amount of Aβ40 over the range of concentration of compounds, relative to control incubations, were fit to a 4-parameter IC50 model.

memapsin 2 = memapsin 2 (Homo sapiens, UniProt P56817); assay: Inhibition of memapsin 2 beta-secretase activity toward fluorogenic substrate FS-2; assay type: biochemical; details: pH 4, 37° C., 20 minutes pre-incubation, substrate FS-2, tight-binding model; read-out: M2 Ki
Method: Potency of compounds were determined by measurement of their inhibition of memapsin 2 activity toward a fluorescent substrate. […] Briefly, assays were performed at pH 4, 37° C., by pre-incubation of memapsin 2 enzyme with compound for 20 minutes. Activity measure was initiated by addition of a fluorogenic substrate FS-2 (Bachem Americas, Torrance, Calif.). Fluorescent signal increase over time was measured as a rate of hydrolysis of the peptide substrate.

memapsin 1 = biological target: T1, memapsin 1 (Homo sapiens, UniProt Q9Y5Z0); assay: Inhibition of memapsin 1 beta-secretase activity (substrate peptide […], MALDI-TOF); assay type: biochemical; details: pH 4.1, 37 degrees C., substrate NH3-ELDLAVEFWHDR-CO2, MALDI-TOF; read-out: M1 Ki
T1 sequence (Q9Y5Z0 63-518): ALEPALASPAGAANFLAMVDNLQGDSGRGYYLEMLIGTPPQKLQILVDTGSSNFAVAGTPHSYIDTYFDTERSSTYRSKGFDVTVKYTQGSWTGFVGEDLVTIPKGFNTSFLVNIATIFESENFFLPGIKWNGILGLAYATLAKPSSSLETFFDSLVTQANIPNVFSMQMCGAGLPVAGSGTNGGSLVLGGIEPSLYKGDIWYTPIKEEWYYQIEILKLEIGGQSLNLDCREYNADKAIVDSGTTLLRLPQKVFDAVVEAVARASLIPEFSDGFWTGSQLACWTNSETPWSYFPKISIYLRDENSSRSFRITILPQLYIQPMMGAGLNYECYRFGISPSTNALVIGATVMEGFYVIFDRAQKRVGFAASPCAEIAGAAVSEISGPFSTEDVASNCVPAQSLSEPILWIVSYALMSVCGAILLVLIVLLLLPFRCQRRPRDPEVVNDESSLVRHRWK

Cathepsin D = Cathepsin D (Homo sapiens, UniProt P07339); assay: Inhibition of cathepsin D activity (substrate peptide […], MALDI-TOF); assay type: biochemical; details: pH 4.1, 37 degrees C., substrate NH3-[…]-CO2, MALDI-TOF; read-out: Cath D Ki
Sequence of Cathepsin D (P07339 65-412, species assumed): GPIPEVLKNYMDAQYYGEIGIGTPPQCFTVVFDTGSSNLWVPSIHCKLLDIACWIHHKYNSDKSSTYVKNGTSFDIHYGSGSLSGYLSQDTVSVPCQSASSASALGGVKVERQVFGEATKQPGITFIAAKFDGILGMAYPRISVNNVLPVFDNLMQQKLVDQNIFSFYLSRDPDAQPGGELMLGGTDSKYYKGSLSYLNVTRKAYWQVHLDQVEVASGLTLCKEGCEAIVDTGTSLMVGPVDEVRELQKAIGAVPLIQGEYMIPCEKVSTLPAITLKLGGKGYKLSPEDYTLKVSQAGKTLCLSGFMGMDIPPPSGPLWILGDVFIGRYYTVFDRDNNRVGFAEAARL

Sequence of memapsin 2 (P56817 46-501): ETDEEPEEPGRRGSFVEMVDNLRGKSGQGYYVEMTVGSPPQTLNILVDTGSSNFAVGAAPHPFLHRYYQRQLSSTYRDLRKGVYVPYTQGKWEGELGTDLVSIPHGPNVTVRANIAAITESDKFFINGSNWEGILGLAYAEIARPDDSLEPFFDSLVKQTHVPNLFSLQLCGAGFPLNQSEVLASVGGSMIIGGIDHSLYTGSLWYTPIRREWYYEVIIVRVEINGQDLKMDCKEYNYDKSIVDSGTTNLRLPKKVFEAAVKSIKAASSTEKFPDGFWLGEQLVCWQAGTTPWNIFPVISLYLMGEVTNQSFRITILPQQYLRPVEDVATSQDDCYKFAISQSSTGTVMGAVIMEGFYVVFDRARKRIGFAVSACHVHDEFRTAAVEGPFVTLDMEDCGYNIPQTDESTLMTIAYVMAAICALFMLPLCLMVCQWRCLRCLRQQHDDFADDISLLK

Row | Structure (SMILES) | IC50 (Aβ production) [nM] | Ki (memapsin 2) [nM] | Ki (memapsin 1) [nM] | Ki (Cathepsin D) [nM]
1 | Cc1cc(C)n(COC(=O)N[C@@H](C[S+](C)[O-])C(=O)N[C@@H](CC(C)C)[C@@H](O)C[C@@H](C)C(=O)N[C@H](C(=O)NCC(C)C)C(C)C)n1 (stereo partly drawn) [Structure 9] | < 6000 | < 100 | < 100 | 100 to 1000
2 | CSC[C@H](NC(=O)CCn1nc(C)cc1C)C(=O)N[C@H](CC(C)C)[C@@H](O)C[C@@H](C)C(=O)N[C@@H](C(=O)NCC(C)C)C(C)C [Structure 4] | 6000 to 100000 | 100 to 1000 | 100 to 1000 | < 100
3 | Cc1nc(COC(=O)N[C@@H](CS(C)(=O)=O)C(=O)N[C@H](CC(C)C)[C@@H](O)C[C@@H](C)C(=O)N[C@@H](C(=O)O)C(C)C)c(C)o1 [Structure 86] | > 100000 | 100 to 1000 | 100 to 1000 | > 1000
4 | CC[C@@H](Cn1nc(C)cc1C)C(=O)N[C@@H](CS(C)(=O)=O)C(=O)N[C@@H](CC(C)C)[C@@H](O)C[C@@H](C)C(=O)N[C@@H](C(=O)NCC(C)C)C(C)C [Structure 7] | > 100000 | < 100 | < 100 | < 100
5 | CSC[C@H](NC(=O)OCc1nc(C)sc1C)C(=O)N[C@H](CC(C)C)[C@@H](O)C[C@@H](C)C(=O)N[C@@H](C(=O)NCC(C)C)C(C)C [Structure 53] | < 6000 | < 100 | < 100 | < 100
6 | Cc1csc(CC(C)C(=O)N[C@@H](CS(C)(=O)=O)C(=O)N[C@H](CC(C)C)[C@@H](O)C[C@@H](C)C(=O)N[C@@H](C(=O)NCC(C)C)C(C)C)n1 (stereo partly drawn) [Structure 37] | > 100000 | < 100 | 100 to 1000 | 100 to 1000
7 | Cc1csc(COC(=O)N[C@@H](CSCC(C)C)C(=O)N[C@H](CC(C)C)[C@@H](O)C[C@@H](C)C(=O)N[C@@H](C(=O)NCC(C)C)C(C)C)n1 [Structure 47] | < 6000 | < 100 | 100 to 1000 | < 100
8 | CCC(C)SC[C@H](NC(=O)OCc1nc(C)cs1)C(=O)N[C@H](CC(C)C)[C@@H](O)C[C@@H](C)C(=O)N[C@@H](C(=O)NCC(C)C)C(C)C (stereo partly drawn) [Structure 66] | < 6000 | < 100 | 100 to 1000 | < 100
9 | Cc1csc(COC(=O)N[C@@H](CS(=O)(=O)C(C)C)C(=O)N[C@H](CC(C)C)[C@@H](O)C[C@@H](C)C(=O)N[C@@H](C(=O)NCC(C)C)C(C)C)n1 [Structure 31] | 6000 to 100000 | < 100 | 100 to 1000 | 100 to 1000
10 | Cc1nc(COC(=O)N[C@@H](CS(C)(=O)=O)C(=O)N[C@H](CC(C)C)[C@@H](O)C[C@@H](C)C(=O)N[C@@H](C(=O)NCc2ccncc2)C(C)C)c(C)o1 [Structure 48] | < 6000 | < 100 | 100 to 1000 | 100 to 1000
11 | Cc1cc(C)n(CCC(=O)N[C@@H](CS(C)(=O)=O)C(=O)N[C@@H](CC(C)C)[C@@H](O)C[C@@H](C)C(=O)N[C@@H](C(=O)NCC(C)C)C(C)C)n1 [Structure 5] | > 100000 | < 100 | 100 to 1000 | 100 to 1000
12 | Cc1coc(COC(=O)N[C@@H](CS(C)(=O)=O)C(=O)N[C@@H](CC(C)C)[C@@H](O)C[C@@H](C)C(=O)N[C@H](C(=O)NCC(C)C)C(C)C)n1 [Structure 95] | < 6000 | < 100 | > 1000 | 100 to 1000
13 | Cc1csc(COC(=O)N[C@@H](CS(=O)(=O)C2CCCC2)C(=O)N[C@H](CC(C)C)[C@@H](O)C[C@@H](C)C(=O)N[C@@H](C(=O)NCC(C)C)C(C)C)n1 [Structure 58] | < 6000 | < 100 | 100 to 1000 | 100 to 1000
14 | CSC[C@H](NC(=O)C(C)Cc1nc(C)cs1)C(=O)N[C@H](CC(C)C)[C@@H](O)C[C@@H](C)C(=O)N[C@@H](C(=O)NCC(C)C)C(C)C (stereo partly drawn) [Structure 34] | < 6000 | < 100 | 100 to 1000 | < 100
15 | COCS(=O)(=O)C[C@H](NC(=O)OCc1nc(C)cs1)C(=O)N[C@H](CC(C)C)[C@@H](O)C[C@@H](C)C(=O)N[C@@H](C(=O)NCC(C)C)C1CCCCC1 [Structure 35] | > 100000 | < 100 | 100 to 1000 | 100 to 1000
